Reference: patent US20250066853A1, “PHARMACEUTICAL COMPOSITION FOR THE TREATMENT AND/OR PREVENTION OF ANEURYSMS, DIAGNOSTIC SUPPORT METHOD FOR ANEURYSMS, AND METHOD FOR EVALUATING ANEURYSM THERAPEUTICS” (RIKEN, priority 2021, published 2025)
“Also recorded” adds a separate entry of the source.

Experiments:
[1] = tested on: AHNAK mutation-induced cerebral aneurysm model mice; assay: AHNAK mutation-induced (AHNAKmini p.G3819A) cerebral aneurysm model mice, maximum diameter of cerebral blood vessels (Example 5); assay type: in vivo, mouse; settings: day 7 to day 28 post-infection, 20 μL/g/day; PD173074 0.1 mg/mL, LY294002 0.02 mg/mL, staurosporine 0.02 mg/mL; versus non-administered group; PD173074 p<0.05
From the text: To introduce AHNAK mutations into experimental animals, it is necessary to incorporate the gene into viral vectors or other vehicles. However, AHNAK is a large protein with a length of 5890 amino acids, making it difficult to incorporate its full-length gene into viral vectors. […] AHNAK has many repeat structures (CRU: Consensus Central Repeat Unit), and the mutation sites are also within the CRU. Therefore, we designed a low-molecular-weight version of AHNAK (AHNAKmini) that combines the […] in this order. […] The amino acid sequence of AHNAKmini is shortened to 1943 amino acids with an N-terminal FLAG tag.
The DNA encoding the AHNAKmini with the p.G3819A mutation was chemically synthesized and subcloned directly into a pAAV vector to prepare pAAV-CMV-AHNAK (SEQ ID NO: 19). This was further modified to have the mutation corresponding to p.G3819A (specifically, changing the 3156th guanine (g) in SEQ ID NO: 19 to cytosine (c)) to prepare pAAV-CMV-AHNAK p.G3819A. HEK293T cells were transfected with the pHelper vector, pRC vector, and pAAV-CMV-AHNAK p.G3819A, and cultured, after which AAV produced by the iodixanol gradient method was harvested (AAV-CMV-AHNAK p.G3819A). As a control, AAV encoding EGFP (AAV-CMV-EGFP) was similarly prepared. After determining the […] of AAV, it was mixed with a hydrogel of PBS comprising 15% Pluronic F-127.
Male C57BL/6N mice aged 8-11 weeks (CLEA Japan) were exposed to the middle cerebral artery according to the protocol described in A. Tamura et al., Journal of Cerebral Blood Flow and Metabolism, 1: 53-60 (1981). The hydrogel comprising AAV was applied multiple times at 5-minute intervals. The skull was covered with temporal fascia, the soft tissue was returned to its original position, and the skin was sutured. The total application amounts of AAV-CMV-EGFP and AAV-CMV-AHNAK p.G3819A were 2.4×10^10 vg and 3.3×10^11 vg, respectively. […]
After decapitation, the cerebral blood vessels were exposed, and the maximum diameter of the cerebral blood vessels was measured. […]

[2] = tested on: mouse model of cerebral aneurysms (PDGFRβ p.559_562del); assay: Mouse cerebral aneurysm model with AAV-introduced PDGFRβ p.559_562del, basilar artery size (Example 2); assay type: in vivo; settings: mice with AAV PDGFRβ p.559_562del, daily i.p. sunitinib 40, axitinib 25, dasatinib 10 mg/kg/day, 28 days post-infection, versus vehicle, sunitinib p<0.05 (Mann-Whitney U)
From the text: A mouse CA (cerebral aneurysm) model was constructed by applying adeno-associated virus (AAV) around the non-branching region of the basilar artery. HEK293T cells were transfected with pHelper vector, pRC vector, and a pAAV vector comprising the target gene. After culturing, AAV was harvested using the iodixanol gradient method. After determining the AAV serotype, it was mixed with a hydrogel of PBS comprising 15% Pluronic F-127. The virus concentrations (vg/mL) in the hydrogels of AAV-CMV-EGFP, AAV-CMV-PDGFRβ, and AAV-CMV-PDGFRβ p559_562del were 2×10^13, 1×10^12, and 1×10^12, respectively.
Male C57BL/6N mice aged 8-11 weeks (CLEA Japan) were deeply anesthetized with medetomidine (0.3 mg/kg), midazolam (4 mg/kg), and butorphanol (5 mg/kg) administered intraperitoneally (i.p.). The basilar artery was exposed as previously described (Yonekura et al., 2004). Three microliters of hydrogel were applied to the basilar artery and removed after 5 minutes. This application was repeated two more times. The mice were divided into three subgroups (control, PDGFRβ(wt), and PDGFRβ(mutant)). […]
To evaluate the effect of the virus, sections were stained with Elastica Van Gieson (EVG) method, selecting the largest artery section from each brain sample for measurement. […] The area and perimeter of the stained sites were calculated using FUJI-ImageJ software (J. Schindelin et al., Nature Methods, 2012).

[3] = tested on: mouse model of cerebral aneurysms (PDGFRβ p.559_562del); assay: Mouse cerebral aneurysm model with PDGFRβ p.559_562del, low-dose treatment from day 7, maximum diameter of basilar artery (Example 3)
Description: After deep anesthesia with isoflurane, the mice were decapitated, and the cerebral blood vessels were exposed to measure the maximum diameter of the basilar artery. Each drug administration condition was tested on three mice.

Question: `O=c1cc(N2CCOCC2)oc2c(-c3ccccc3)cccc12` [LY294002] was tested. Which “Increase in maximum cerebral vessel diameter” value (shortened to “Increase”) [1] did it give?
Answer: The value was “suppressed in all mice”.

Question: `CCN(CC)CCCCNc1ncc2cc(-c3cc(OC)cc(OC)c3)c(NC(=O)NC(C)(C)C)nc2n1` [PD173074] was tested. Which “Increase” value [1] did it give?
Answer: The value was “significant suppression”.

Question: `CNC(=O)c1ccccc1Sc1ccc2c(/C=C/c3ccccn3)n[nH]c2c1` [axitinib] was tested. Which “Enlargement (dilation) of basilar artery” value ([2]; listed as avitinib) did it give?
Answer: The value was “suppressed this arterial dilation”.

Question: Which “Enlargement (dilation) of basilar artery” value [2] does the source give for `Cc1nc(Nc2ncc(C(=O)Nc3c(C)cccc3Cl)s2)cc(N2CCN(CCO)CC2)n1` [dasatinib] here?
Answer: The value was “suppressed this arterial dilation”.

Question: What about the “Maximum diameter of basilar artery (cerebral vessel expansion) compared to sunitinib” value ([3]; i.p. daily day 7 to day 28, axitinib 0.76, dasatinib 1.0, sunitinib 0.78 mg/kg/day, three mice each, dasatinib vs sunitinib p=0.040) of the same molecule?
Answer: The value was “significantly suppressed cerebral vessel expansion”.

Question: And the “Treatment effect on cerebral artery expansion (rank order)” value ([3]; low concentration ranges, administration from day 7 after mutation introduction)?
Answer: Its value is “highest for dasatinib; also recorded: high treatment/preventive effects”.

Question: For `CN[C@@H]1C[C@H]2O[C@@](C)([C@@H]1OC)n1c3ccccc3c3c4c(c5c6ccccc6n2c5c31)C(=O)NC4` [staurosporine], which “Increase” value [1] is on record?
Answer: The value was “suppressed in all mice”.
